Experimental data reported in US7015249B1, “Methods and compositions for treating diabetes” (Purdue Research Foundation, priority 1997, dated 2006).

How the values were obtained:
Assay type in all cases: cell-based
full length mouse PPARγ = target: T1, full length mouse PPARγ (Mus musculus, UniProt P37238); assay: Full length PPARγ PPRE-luciferase reporter assay in CV-1 cells; details: 100 μM, six hours
T1 construct: constructs including full length mouse PPARα, PPARβ or PPARγ and a luciferase reporter gene; expressed in transfected cells; host or cells: CV-1 (African green monkey kidney cells)
T1 sequence (P37238 1-505): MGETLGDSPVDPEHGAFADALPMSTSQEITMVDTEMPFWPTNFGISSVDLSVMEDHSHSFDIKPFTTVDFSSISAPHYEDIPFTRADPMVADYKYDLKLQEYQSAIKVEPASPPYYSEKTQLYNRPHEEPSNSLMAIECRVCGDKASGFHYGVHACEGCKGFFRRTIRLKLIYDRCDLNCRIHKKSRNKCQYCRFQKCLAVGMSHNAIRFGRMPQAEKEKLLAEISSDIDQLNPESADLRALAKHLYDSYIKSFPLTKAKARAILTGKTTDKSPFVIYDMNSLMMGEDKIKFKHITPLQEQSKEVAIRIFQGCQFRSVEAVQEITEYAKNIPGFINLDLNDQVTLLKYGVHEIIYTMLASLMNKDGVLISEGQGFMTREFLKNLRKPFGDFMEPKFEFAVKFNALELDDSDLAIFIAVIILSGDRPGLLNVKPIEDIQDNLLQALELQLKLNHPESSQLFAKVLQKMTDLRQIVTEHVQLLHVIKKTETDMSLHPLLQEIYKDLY
Procedure: (§1) The data in FIGS. 5–7 was generated utilizing constructs including full length mouse PPARα, PPARβ or PPARγ and a luciferase reporter gene. The CV-1 cell line (African green monkey kidney cells) used was obtained from American Type Culture Collection (#CCL-70). The cells were grown in Eagle minimal essential medium containing 10% fetal bovine serum (GIBCO). For each transfection involving PPARα, 625 ng pcDNA3-PPARα expression vector was used along with 250 ng of psV-GL-2-PPRE-luciferase reporter plasmid and 250 ng of pSV-β-galactosidase internal control plasmid. For each transfection involving PPARβ or PPARγ, either 625 ng pSG5-mouse-PPARβ or 625 ng pSG5-mouse-PPARγ was used along with 250 ng of the psV-GL2-PPRE-luciferase reporter plasmid and 250 ng of pSV-β-galactosidase internal control plasmid. Cells were transfected using Lipofect AMINE™ reagent (GIBCO) and phenol red-free, serum free medium (OptiMEM®I, GIBCO Life Technologies, Grand Island, N.Y.). Seven hours post-transfection, charcoal stripped serum (Cocalico Biologicals, Inc. Reamstown, Pa.) was added to the media (10% final concentration) for an overnight incubation (16 hours). […] The data were quantified relative to luciferase/β-galactosidase activity expressed as a ratio to vehicle-treated cells (0.1% DMSO).

full length mouse PPARα = target: T2, full length mouse PPARα (Mus musculus, UniProt P23204); assay: Full length PPARα PPRE-luciferase reporter assay in CV-1 cells; details: 100 μM, six hours
T2 construct: constructs including full length mouse PPARα, PPARβ or PPARγ and a luciferase reporter gene; expressed in transfected cells; host or cells: CV-1 (African green monkey kidney cells)
T2 sequence (P23204 1-468): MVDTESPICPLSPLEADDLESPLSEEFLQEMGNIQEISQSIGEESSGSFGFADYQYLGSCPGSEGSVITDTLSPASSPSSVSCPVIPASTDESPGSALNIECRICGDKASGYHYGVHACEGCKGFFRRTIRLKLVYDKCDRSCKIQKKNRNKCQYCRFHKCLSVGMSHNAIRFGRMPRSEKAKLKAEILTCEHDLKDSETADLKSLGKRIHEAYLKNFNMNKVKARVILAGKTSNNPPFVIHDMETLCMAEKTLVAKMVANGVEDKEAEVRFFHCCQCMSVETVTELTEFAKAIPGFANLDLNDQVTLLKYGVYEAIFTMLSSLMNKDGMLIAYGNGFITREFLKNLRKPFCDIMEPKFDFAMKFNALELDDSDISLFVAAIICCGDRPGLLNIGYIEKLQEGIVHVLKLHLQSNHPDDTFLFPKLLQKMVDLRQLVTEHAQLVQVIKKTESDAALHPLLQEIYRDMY
Procedure: as §1

full length mouse PPARβ = target: T3, full length mouse PPARβ (Mus musculus, UniProt P35396); assay: Full length PPARβ PPRE-luciferase reporter assay in CV-1 cells; details: 100 μM
T3 construct: constructs including full length mouse PPARα, PPARβ or PPARγ and a luciferase reporter gene; expressed in transfected cells; host or cells: CV-1 (African green monkey kidney cells)
T3 sequence (P35396 1-440): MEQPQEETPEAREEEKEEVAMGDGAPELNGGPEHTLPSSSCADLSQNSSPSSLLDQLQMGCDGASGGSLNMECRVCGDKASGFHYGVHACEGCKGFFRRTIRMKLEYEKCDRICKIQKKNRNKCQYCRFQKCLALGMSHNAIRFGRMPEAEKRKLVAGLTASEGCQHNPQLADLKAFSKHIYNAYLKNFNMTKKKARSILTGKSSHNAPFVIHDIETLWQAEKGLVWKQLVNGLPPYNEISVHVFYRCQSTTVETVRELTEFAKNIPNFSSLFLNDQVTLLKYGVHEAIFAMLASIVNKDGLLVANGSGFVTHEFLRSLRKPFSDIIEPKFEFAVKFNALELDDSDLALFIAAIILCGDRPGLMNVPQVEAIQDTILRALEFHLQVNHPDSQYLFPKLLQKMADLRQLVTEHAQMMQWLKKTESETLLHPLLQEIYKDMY
Procedure: as §1

[1] = target: T4, ligand binding domain of mouse PPARβ (Mus musculus, UniProt P35396); assay: GAL4-PPARβ chimera / (UAS)5-tk-CAT reporter transfection assay in COS-1 cells; details: 100 μM in DMSO
T4 construct: expressed in transfected cells; host or cells: COS-1
T4 sequence (P35396 210-438 limits assumed): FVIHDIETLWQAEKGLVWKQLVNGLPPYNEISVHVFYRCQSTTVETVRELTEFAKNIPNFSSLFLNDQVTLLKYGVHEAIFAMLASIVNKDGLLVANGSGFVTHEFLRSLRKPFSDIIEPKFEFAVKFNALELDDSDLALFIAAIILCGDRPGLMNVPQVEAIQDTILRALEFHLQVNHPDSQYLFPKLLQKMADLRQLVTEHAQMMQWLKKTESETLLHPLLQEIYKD
Procedure: (§2) COS-1 cells (American Type Culture Collection) were maintained in α-minimal essential media (Sigma) supplemented with 8% fetal calf serum (Gibco BRL), 0.2 mg/ml streptomycin and 200 U/ml penicillin. The pSG5-GAL4-PPAR chimera expression constructs, containing the ligand binding domain of mouse PPARα, β or γ, as well as the (UAS)5-tk-CAT reporter construct were kindly provided by Steven A. Kliewer (Glaxo Research Institute). At 75–90% confluence, COS-1 cells were co-transfected with GAL4-PPAR, (UAS)5-tk-CAT, and pSV-βGal (Promega) as described in Lehmann, J. M. et al., J. Biol. Chem. 270, 12953–12956 (1995). Twenty-four hours after transfection, the cells were treated with the indicated amounts of CLA, or a single 100 μM dose of 4-chloro-6-(2,3-xylindino)-2-pyrimidinylthio)-acetic acid (Wy 14,643; a hypolipidemic drug known as a peroxisome proliferator). After 6 hours of treatment, the cells were harvested and chloramphenicol acetyltransferase levels were assessed by ELISA (Gibco BRL) according to the manufacturer's instructions. Data is expressed relative to β-galactosidase activity. CLA used in this experiment was obtained from a commercially available mixture from NuChek Prep, Elysian Minn. The mixture contained about 41.2% by weight of a composition including cis,trans-9,11-octadecadienoic acid and trans,cis-9,11-octadecadienoic acid, about 44% by weight trans,cis-10,12-octadecadienoic acid, about 9.4% by weight cis,cis-10,12-octadecadienoic acid, about 1.3% by weight of a composition including trans,trans-9,11-octadecadienoic acid and trans,trans-10,12-octadecadienoic acid, about 1.1% by weight cis,cis-9,11-octadecadienoic acid, about 0.7% by weight linoleic acid and about 2.2% of other lipids as mentioned above.
In this example, certain PPAR subtypes are shown to be activated by CLA isomers. However, a 100 μM concentration of selected isomers of CLA were also utilized in the transfection assay to determine whether specific isomers of CLA could activate any of the PPAR subtypes.

[2] = target: T5, ligand binding domain of mouse PPARα (Mus musculus, UniProt P23204); assay: GAL4-PPARα chimera / (UAS)5-tk-CAT reporter transfection assay in COS-1 cells; details: 100 μM in DMSO
T5 construct: expressed in transfected cells; host or cells: COS-1
T5 sequence (P23204 239-466 limits assumed): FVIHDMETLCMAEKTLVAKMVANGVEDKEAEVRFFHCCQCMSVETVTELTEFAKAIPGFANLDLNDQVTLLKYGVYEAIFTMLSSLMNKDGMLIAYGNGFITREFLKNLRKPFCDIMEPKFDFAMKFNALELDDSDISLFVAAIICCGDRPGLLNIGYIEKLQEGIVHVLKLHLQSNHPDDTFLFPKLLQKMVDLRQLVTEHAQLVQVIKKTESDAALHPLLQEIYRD
Procedure: as §2, with “The mixture contained about 41.2% by weight of a composition including cis,trans-9,11-octadecadienoic acid and trans,cis-9,11-octadecadienoic acid, about 44% by weight trans,cis-10,12-octadecadienoic acid, about 9.4% by weight cis,cis-10,12-octadecadienoic acid, about 1.3% by weight of a composition including trans,trans-9,11-octadecadienoic acid and trans,trans-10,12-octadecadienoic acid, about 1.1% by weight cis,cis-9,11-octadecadienoic acid, about 0.7% by weight linoleic acid and about 2.2% of other lipids as mentioned above.” left out

[3] = listed as trans,cis-10,12-octadecadienoic acid

activation of full length PPARγ vs DMSO control (FIG. 7) (full length mouse PPARγ) | activation of full length PPARα vs DMSO control / CLA mixture (FIG. 5) (full length mouse PPARα; [3]) | activation of full length PPARβ vs DMSO control / CLA mixture (FIG. 6) (full length mouse PPARβ; [3]) | activation of PPARβ, compared with CLA mixture (FIG. 4) [1] | activation of PPARα, compared with CLA mixture (FIG. 4) [2] | Structure (SMILES) | activation of full length PPARα vs DMSO control / CLA mixture (FIG. 5) (full length mouse PPARα) | activation of full length PPARβ vs DMSO control / CLA mixture (FIG. 6) (full length mouse PPARβ)
activate | activate | activate | – | – | CCCCC/C=C\C=C\CCCCCCCCC(=O)O [trans,cis-10,12 CLA isomer, trans,cis-10,12-octadecadienoic acid] | significantly more than the CLA mixture alone | significantly more than the CLA mixture alone
– | – | – | more than CLA mixture alone | – | CCCCCC/C=C/C=C/CCCCCCCC(=O)O [9E11E, trans,trans-9,11-octadecadienoic acid] | – | –
– | – | – | more than the CLA mixture | more than the CLA mixture | CCCCCC/C=C\C=C/CCCCCCCC(=O)O [9Z11Z, cis,cis-9,11-octadecadienoic acid] | – | –
– | – | – | more than the CLA mixture | more than the CLA mixture | CCCCCC/C=C/C=C\CCCCCCCC(=O)O [9Z11E, cis,trans-9,11-octadecadienoic acid] | – | –
